Laboratory results: US6569904B1, “Agent for lowering endothelin levels” (Orion Corporation, priority 1998, dated 2003)

Tests used:
Assay type in all cases: in vivo, postmenopausal breast cancer patients
endothelin-1 (ET-1) = experiment: Effect on endothelin-1 level in plasma of patients treated orally for one year; details: for Plasma level of endothelin-1, at 6 months: at 6 months of oral treatment (toremifene 40 mg/d, tamoxifen 20 mg/d, estradiol valerate 2 mg/d); for Plasma level of endothelin-1, at 6 months / Plasma level of endothelin-1, at 12 months / Plasma level of endothelin-1, before treatment: mean±SE; for Plasma level of endothelin-1, at 12 months: at 12 months of oral treatment (toremifene 40 mg/d, tamoxifen 20 mg/d, estradiol valerate 2 mg/d); for Plasma level of endothelin-1, before treatment: baseline before treatment, breast cancer patients; for Effect on endothelin-1 level in patients during the treatment (in words): oral treatment for one year
Procedure: Effect of toremifene on endothelin-1 level in plasma
(§1) Postmenopausal breast cancer patients were treated with 40 mg/d toremifene (Fareston™) (n=19), 20 mg/d tamoxifen (Tadex™) (n=25) or 2 mg/d estradiol valerate (Progynova™)(n=14) orally for one year. The 44 patients of the antiestrogen groups had been operated on breast cancer 6-8 weeks before the trial. Plasma samples (10 ml) were collected before and at 6 and 12 months of each regimen, and plasma levels of endothelin-1 (ET-1) and nitrite/nitrate (NOx) were measured by established methods. The data (presented as mean±SE) were analyzed by two-way analysis of variance (ANOVA) for repeated measures. When differences were indicated by ANOVA, their significances at individual timepoints were calculated by means of a t-test for independent means (between-groups comparison) or a t-test for dependent means (comparison to baseline within a single group). For determination of correlation between two variables, the Pearsson coefficient was calculated.

nitrite/nitrate (NOx) = experiment: Plasma nitrite/nitrate (NOx) level in patients treated orally for one year; details: mean±SE; for Plasma level of nitrite/nitrate, at 6 months: at 6 months of oral treatment; for Plasma level of nitrite/nitrate, at 12 months: at 12 months of oral treatment; for Plasma level of nitrite/nitrate, before treatment: baseline before treatment, breast cancer patients
Procedure: as §1

[1] = Occurrence of thromboses and cerebrovascular accidents in three clinical adjuvant trials; details: for Cerebrovascular accidents (number of occurrences) / Deep vein thromboses (number of occurrences): oral toremifene 40 mg/d (1120 patients) vs oral tamoxifen 20 mg/day (1110 patients) for 3 years, serious events
Procedure: Occurrence of thromboses and cerebrovascular accidents
In three clinical adjuvant trials effects of oral toremifene 40 mg/d was compared to oral tamoxifen 20 mg/day for 3 years in postmenopausal breast cancer patients. The occurrence of serious deep vein thromboses and serious cerebrovascular accidents in toremifen and tamoxifen groups are summarized in Table 2.

Compound: CCCCC(=O)O[C@H]1CC[C@H]2[C@@H]3CCc4cc(O)ccc4[C@H]3CC[C@]12C [Estrogen, estradiol valerate]
- Plasma level of endothelin-1, at 6 months (endothelin-1 (ET-1)): 2.7 ± 0.2 ng/L
- Plasma level of endothelin-1, at 12 months (endothelin-1 (ET-1)): 2.7 ± 0.2 ng/L
- Plasma level of endothelin-1, before treatment (endothelin-1 (ET-1)): 2.8 ± 0.2 ng/L
- Plasma level of nitrite/nitrate, at 6 months (nitrite/nitrate (NOx)): 21.5 ± 3.2 µmol/L
- Plasma level of nitrite/nitrate, at 12 months (nitrite/nitrate (NOx)): 18.5 ± 2.7 µmol/L
- Plasma level of nitrite/nitrate, before treatment (nitrite/nitrate (NOx)): 25.8 ± 3.7 µmol/L

Compound: CC/C(=C(\c1ccccc1)c1ccc(OCCN(C)C)cc1)c1ccccc1 [Tamoxifen, tamoxifen]
- Plasma level of endothelin-1, at 6 months (endothelin-1 (ET-1)): 3.5 ± 0.2 ng/L
- Plasma level of endothelin-1, at 12 months (endothelin-1 (ET-1)): 3.2 ± 0.2 ng/L
- Plasma level of endothelin-1, before treatment (endothelin-1 (ET-1)): 3.5 ± 0.2 ng/L
- Effect on endothelin-1 level in patients during the treatment (in words) (endothelin-1 (ET-1)): no effect
- Plasma level of nitrite/nitrate, at 6 months (nitrite/nitrate (NOx)): 22.8 ± 4.0 µmol/L
- Plasma level of nitrite/nitrate, at 12 months (nitrite/nitrate (NOx)): 20.4 ± 2.5 µmol/L
- Plasma level of nitrite/nitrate, before treatment (nitrite/nitrate (NOx)): 20.6 ± 2.3 µmol/L
- Cerebrovascular accidents (number of occurrences) [1]: 14
- Deep vein thromboses (number of occurrences) [1]: 13
- Vascular complications (deep vein thrombosis and cerebrovascular events), comparison in words ([1]; tamoxifen treated patients compared with toremifene treated patients): clearly more vascular complications

Compound: CN(C)CCOc1ccc(/C(=C(/CCCl)c2ccccc2)c2ccccc2)cc1 [Toremifene, toremifene]
- Plasma level of endothelin-1, at 6 months (endothelin-1 (ET-1)): 2.6 ± 0.2 ng/L
- Plasma level of endothelin-1, at 12 months (endothelin-1 (ET-1)): 2.6 ± 0.2 ng/L
- Plasma level of endothelin-1, before treatment (endothelin-1 (ET-1)): 3.0 ± 0.2 ng/L
- Effect on endothelin-1 level in patients during the treatment (in words) (endothelin-1 (ET-1)): significantly lowered endothelin-1 level
- Plasma level of nitrite/nitrate, at 6 months (nitrite/nitrate (NOx)): 21.0 ± 2.5 µmol/L
- Plasma level of nitrite/nitrate, at 12 months (nitrite/nitrate (NOx)): 21.6 ± 3.1 µmol/L
- Plasma level of nitrite/nitrate, before treatment (nitrite/nitrate (NOx)): 23.4 ± 4.0 µmol/L
- Cerebrovascular accidents (number of occurrences) [1]: 2
- Deep vein thromboses (number of occurrences) [1]: 7
